Measurements as given in patent US8357694B2, “Substituted 5,6-dihydro-6-phenylbenzo[F]isoquinolin-2-amine compounds” (ArQule, Inc., priority 2008, dated 2013).
Structures can show the parent of a compound that is named as a salt.

What was measured:
[1] = biological target: T1, FGFR2 kinase (Homo sapiens, UniProt P21802, N549H); assay: fluorescent ELISA FGFR2 kinase assay (biochemical); details: FGFR2 (N549H); read-out: Biochemical data (IC50-μM) FGFR2 (N549H)
T1 construct: purchased Millipore 14-742
T1 sequence (P21802 456-770 N549H limits assumed): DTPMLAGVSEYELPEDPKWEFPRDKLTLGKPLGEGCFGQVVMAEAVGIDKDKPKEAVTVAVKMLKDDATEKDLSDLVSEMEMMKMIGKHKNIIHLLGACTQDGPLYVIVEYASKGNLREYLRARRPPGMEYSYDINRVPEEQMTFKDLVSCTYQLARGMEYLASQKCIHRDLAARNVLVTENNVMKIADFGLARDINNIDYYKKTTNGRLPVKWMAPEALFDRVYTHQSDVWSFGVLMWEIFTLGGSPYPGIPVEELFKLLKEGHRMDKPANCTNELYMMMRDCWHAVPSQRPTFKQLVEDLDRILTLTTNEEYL
Protocol: The enzymatic assays described herein are conducted according to the following procedures from commercially available reagents. In one, non limiting, example, a fluorescent ELISA assay is used to identify and characterize inhibitors of FGFR2 kinase as described herein. This heterogeneous assay utilizes a biotinylated peptide with a tyrosine motif as a substrate and an anti-phospho-tyrosine antibody to measure phosphorylation of the substrate. […] The reaction is incubated for 60 minutes. As the reaction proceeds, FGFR2 phosphorylates tyrosines in the peptide. […] Peptides are captured for 30 minutes at room temperature, the phosphorylation of peptides continues during this phase. The reaction is stopped by washing the streptavidin-coated plate 6 times with TBST. […] Unbound anti-phospho-tyrosine antibody is removed by washing the streptavidin-coated plate 6 times with TBST. […] Unbound secondary antibody is removed by washing the streptavidin-coated plate 6 times with TBST.

[2] = system: AN3-CA; assay: MTS cell kill assay, AN3-CA; format: cell-based; details: Homo sapiens
Protocol: (§1) Cells were maintained at 37° C., 5% CO2 in DMEM media supplemented with 1% fetal bovine serum, penicillin/streptomycin and fungizone (Invitrogen). Cells were seeded into 96-well tissue culture plates at 3000 per well and cultured at 37° C. for 18 hours. Test compounds were dissolved and diluted to 300× in DMSO then diluted 1:40 in DMEM.

[3] = system: RT4; assay: MTS cell kill assay, RT4; format: cell-based; details: Homo sapiens, RT-4, RT4
Protocol: as §1

[4] = system: SNU-16; assay: MTS assay, SNU-16; format: cell-based; details: Homo sapiens
Protocol: as §1

[5] = system: RT112; assay: MTS cell kill assay, RT112; format: cell-based; details: Homo sapiens, RT-112, RT112
Protocol: as §1

[6] = system: KATO III; assay: MTS assay, KATO III; format: cell-based
Protocol: as §1

[7] = system: NCI-H1299; assay: MTS cell kill, NCI-H1299; format: cell-based
Protocol: as §1

[8] = system: PACA-2; assay: MTS cell kill, PACA-2; format: cell-based
Protocol: as §1

[9] = system: DLD-1; assay: MTS cell kill, DLD-1; format: cell-based
Protocol: as §1

[10] = system: PC-3; assay: MTS cell kill, PC-3; format: cell-based
Protocol: as §1

[11] = system: MDA-MB-231; assay: MTS cell kill, MDA-MB-231; format: cell-based
Protocol: as §1

[12] = system: KATO III; assay: in vitro PD assay, KATO III; format: cell-based; details: Homo sapiens
[13] = system: SNU-16; assay: in vitro PD assay, SNU-16; format: cell-based; details: Homo sapiens
[14] = SNU-16, SNU-16, read-out: MTS cell kill data (IC50-μM) SNU-16

| Compound | IC50 [1] [µM] | IC50 [2] [µM] | IC50 [3] [µM] | IC50 [4, 14] [µM] | IC50 [5] [µM] | MTS cell kill data (% inhibition) KATO III [6] | MTS cell kill data (% inhibition) NCI-H1299 [7] | MTS cell kill data (% inhibition) PACA-2 [8] | MTS cell kill data (% inhibition) DLD-1 [9] | MTS cell kill data (% inhibition) PC-3 [10] | MTS cell kill data (% inhibition) MDA-MB-231 [11] | other results |
| --- | --- | --- | --- | --- | --- | --- | --- | --- | --- | --- | --- | --- |
| COCCN1CCN(CCc2ccc(Nc3ncc4c(n3)-c3ccccc3[C@H](c3ccccc3F)C4)cc2)CC1 [Example 66, (R)-6-(2-fluorophenyl)-N-(4-(2-(4-(2-methoxyethyl)piperazin-1-yl)ethyl)phenyl)-5,6-dihydrobenzo[h]quinazolin-2-amine hydrochloride] | 0.014 | 0.361 | 1.55 | 1.28 | – | – | – | – | – | – | – | – |
| CN1CCN(CCc2cccc(Nc3ncc4c(n3)-c3ccccc3[C@H](c3ccccc3F)C4)c2)CC1 [Example 161, (R)-6-(2-fluorophenyl)-N-(3-(2-(4-methylpiperazin-1-yl)ethyl)phenyl)-5,6-dihydrobenzo[h]quinazolin-2-amine hydrochloride] | 0.0174 | 0.738 | 1.47 | 0.397 | 0.627 | – | – | – | – | – | – | – |
| Fc1ccccc1[C@@H]1Cc2cnc(Nc3cccc(CCN4CCNCC4)c3)nc2-c2ccccc21 [Example 163, (R)-6-(2-fluorophenyl)-N-(3-(2-(piperazin-1-yl)ethyl)phenyl)-5,6-dihydrobenzo[h]quinazolin-2-amine] | 0.0511 | 1.39 | 1.38 | 0.894 | 1.19 | – | – | – | – | – | – | melting point: 165 to 167 °C |
| COCCN1CCN(CCc2cccc(Nc3ncc4c(n3)-c3ccccc3[C@@H](c3ccccc3F)C4)c2)CC1 [Example 164, (S)-6-(2-fluorophenyl)-N-(3-(2-(4-(2-methoxyethyl)piperazin-1-yl)ethyl)phenyl)-5,6-dihydrobenzo[h]quinazolin-2-amine] | 0.047 | 1.38 | 2.97 | 1.34 | 1.51 | – | – | – | – | – | – | – |
| CN1CCN(CCc2cc(Nc3ncc4c(n3)-c3ccccc3[C@H](c3ccccc3F)C4)ccc2F)CC1 [Example 174, (R)-N-(4-fluoro-3-(2-(4-methylpiperazin-1-yl)ethyl)phenyl)-6-(2-fluorophenyl)-5,6-dihydrobenzo[h]quinazolin-2-amine hydrochloride salt] | 0.0433 | 2 | 3.54 | 1.16 | 1.52 | – | – | – | – | – | – | – |
| COCCN1CCN(CCc2cc(Nc3ncc4c(n3)-c3ccccc3[C@H](c3ccccc3F)C4)ccc2F)CC1 [Example 175, (R)-N-(4-fluoro-3-(2-(4-(2-methoxyethyl)piperazin-1-yl)ethyl)phenyl)-6-(2-fluorophenyl)-5,6-dihydrobenzo[h]quinazolin-2-amine hydrochloride salt] | 0.0443 | 2.39 | 2.97 | 1.04 | 1.54 | – | – | – | – | – | – | – |
| COCCNCc1cccc(Nc2ncc3c(n2)-c2ccccc2[C@H](c2ccccc2F)C3)c1 [Example 178, (R)-6-(2-fluorophenyl)-N-(3-((2-methoxyethylamino)methyl)phenyl)-5,6-dihydrobenzo[h]quinazolin-2-amine hydrochloride] | 0.0255 | 1.77 | 4.28 | 0.711 | 2.68 | – | – | – | – | – | – | – |
| CCCc1ccc(C(=O)Nc2ccc(C3Cc4cnc(NCCCCN(C)C)nc4-c4ccccc43)cc2)cc1 (stereo not drawn) [Example 470, N-[4-(2-{[4-(dimethylamino)butyl]amino}-5,6-dihydrobenzo[h]quinazolin-6-yl)phenyl]-4-propylbenzamide] | – | – | – | – | – | A (A = 80-100% inhibition) | A (A = 80-100% inhibition) | A (A = 80-100% inhibition) | A (A = 80-100% inhibition) | A (A = 80-100% inhibition) | A (A = 80-100% inhibition) | – |
| COCC(=O)Nc1ccc(C2Cc3cnc(NCCCCN(C)C)nc3-c3ccccc32)cc1 (stereo not drawn) [Example 471, N-[4-(2-{[4-(dimethylamino)butyl]amino}-5,6-dihydrobenzo[h]quinazolin-6-yl)phenyl]-2-methoxyacetamide] | – | – | – | – | – | A (A = 80-100% inhibition) | A (A = 80-100% inhibition) | A (A = 80-100% inhibition) | A (A = 80-100% inhibition) | C (C = <50% inhibition) | A (A = 80-100% inhibition) | – |
| COc1ccc(OC)c(CC(=O)Nc2ccc(C3Cc4cnc(NCCCCN(C)C)nc4-c4ccccc43)cc2)c1 (stereo not drawn) [Example 473] | – | – | – | – | – | A (A = 80-100% inhibition) | A (A = 80-100% inhibition) | A (A = 80-100% inhibition) | A (A = 80-100% inhibition) | A (A = 80-100% inhibition) | A (A = 80-100% inhibition) | – |
| COc1ccc(C(=O)Nc2ccc(C3Cc4cnc(NCCCCN(C)C)nc4-c4ccccc43)cc2)cc1F (stereo not drawn) [Example 474, N-[4-(2-{[4-(dimethylamino)butyl]amino}-5,6-dihydrobenzo[h]quinazolin-6-yl)phenyl]-3-fluoro-4-methoxybenzamide] | – | – | – | – | – | A (A = 80-100% inhibition) | A (A = 80-100% inhibition) | A (A = 80-100% inhibition) | A (A = 80-100% inhibition) | A (A = 80-100% inhibition) | B (B = 50-79% inhibition) | – |
| CCN(CC)CCNC(=O)c1c(C)[nH]c(/C=C2\C(=O)Nc3ccc(F)cc32)c1C [Sunitinib, reference compound] | – | – | – | – | – | – | – | – | – | – | – | IC50 ([6]; Homo sapiens, read-out: MTS IC50): 300 nM; IC50 [12]: 1600 nM; IC50 [13]: 4300 nM; IC50 ([4]; SNU-16, read-out: MTS IC50): 1.1 µM |
